Data from article PMC6522510 (Nature Communications, 2019).
pEC50: −log10 of the molar value. Like-named read-outs stand apart in the source and are kept apart here.

Legend:
Test in all cases: Secondary dose-response HTS, Cell Titer Glo; call rule not given here
Format in all cases: cell-based, human
[1] = tested on: M07e; conditions: for pEC50: Homo sapiens, M-07e
[2] = tested on: CMS; conditions: for pEC50: Homo sapiens
[3] = tested on: CMK; conditions: CMK
[4] = tested on: CHRF288-11; conditions: for pEC50: Homo sapiens
[5] = tested on: ML2; conditions: ML-2; for pEC50: Homo sapiens
[6] = tested on: MV4-11; conditions: MV4-11
[7] = tested on: U937
[8] = tested on: MOLM-13; conditions: MOLM-13
[9] = secondary high-throughput screen, M07e
[10] = secondary high-throughput screen, CMS
[11] = secondary high-throughput screen
[12] = secondary high-throughput screen, CHRF288-11
[13] = secondary high-throughput screen, U937
[14] = Homo sapiens, secondary high-throughput screen, read-out: average effective concentration, MV4-11
[15] = Homo sapiens, secondary high-throughput screen, read-out: average effective concentration, MOLM-13
[16] = secondary high-throughput screen, […]
[17] = secondary high-throughput screen, read-out: average effective concentration, MOLM-13
[18] = HTS, secondary high-throughput screen, CMS, read-out: average effective concentration, CMS
[19] = HTS, secondary high-throughput screen, CHRF288-11, read-out: average effective concentration, CHRF288-11
[20] = secondary high-throughput screen, read-out: average effective concentration, ML-2
[21] = Homo sapiens, U-937, secondary high-throughput screen, U937, read-out: average effective concentration, U937
[22] = secondary high-throughput screen, M07e, read-out: average effective concentration, M07e

| Molecule | average effective concentration, M07e [1, 9] | average effective concentration, CMS [2, 10] | average effective concentration, CMK [3, 11] | average effective concentration, CHRF288-11 [4, 12] | average effective concentration, ML-2 [5, 11] | average effective concentration, MV4-11 [6, 11] | average effective concentration, U937 [7, 13] | average effective concentration, MOLM-13 [8, 11] | other results |
| --- | --- | --- | --- | --- | --- | --- | --- | --- | --- |
| NC(=O)C1CCCc2c1[nH]c1ccc(Cl)cc21 (centres unmarked) | Inactive | Inactive | Inactive | Inactive | Inactive | Inactive | Inactive | Inactive |  |
| Cc1ccc(S(=O)(=O)n2c(N)nc3ccccc32)cc1 [NODINITIB-1] | Inactive | Inactive | Inactive | Inactive | Inactive | Inactive | Inactive | Inactive |  |
| ANACARDIC ACID | Inactive | Inactive | Inactive | Inactive | Inactive | Inactive | Inactive | Inactive |  |
| O=C1c2c(O)ccc(O)c2C(=O)c2c(NCCNCCO)ccc(NCCNCCO)c21 [Mitoxantrone, reference compound] |  |  |  |  |  |  |  |  | pEC50 ([1]; secondary HTS, 72 h, average of triplicate, read-out: EC50 M07e): 7.52; pEC50 ([2]; secondary HTS, 72 h, average of triplicate, read-out: EC50 CMS): 7.10; pEC50 ([3]; Homo sapiens, secondary HTS, 72 h, average of triplicate, read-out: EC50 CMK): 7.40; pEC50 ([4]; secondary HTS, 72 h, average of triplicate, read-out: EC50 CHRF288-11): 7.70; pEC50 ([5]; secondary HTS, 72 h, average of triplicate, read-out: EC50 ML2): 6.62; pEC50 ([6]; Homo sapiens, secondary HTS, 72 h, average of triplicate, read-out: EC50 MV4-11): 9.00; pEC50 ([7]; Homo sapiens, U-937, secondary HTS, 72 h, average of triplicate, read-out: EC50 U937): 7.52; pEC50 ([8]; Homo sapiens, secondary HTS, 72 h, average of triplicate, read-out: EC50 MOLM-13): 8.00 |
| C#Cc1cccc(Nc2ncnc3cc(OCCOC)c(OCCOC)cc23)c1 [ERLOTINIB] | Inactive | Inactive | Inactive | Inactive | Inactive |  | Inactive |  | pEC50 [6, 14]: < 5.00; pEC50 [8, 15]: < 5.00 |
| Cc1ccc(C(=O)COC(=O)c2cccc(NC(=O)c3ccc([N+](=O)[O-])cc3[N+](=O)[O-])c2)cc1 [FM19G11] | Inactive | Inactive | Inactive | Inactive | Inactive | Inactive | Inactive | Inactive |  |
| O=C1Nc2ccc(I)cc2/C1=C/c1cc(Br)c(O)c(Br)c1 [GW 5074] | Inactive | Inactive | Inactive | Inactive | Inactive | Inactive | Inactive | Inactive |  |
| Cc1cc(I)ccc1Nc1c(C(=O)NOCC2CC2)cc(F)c(F)c1F [PD 198306] | Inactive | Inactive | Inactive | Inactive | Inactive | Inactive | Inactive | Inactive |  |
| CSCC[C@H](NC(=O)[C@H](Cc1ccccc1)NC[C@@H](NC[C@@H](N)CS)C(C)C)C(=O)O [FTASE INHIBITOR I] |  | Inactive | Inactive | Inactive | Inactive | Inactive | Inactive | Inactive | average effective concentration, M07e [1, 16]: Inactive |
| CN(C)C1CCN(C(=O)c2ccc(NC(=O)Nc3ccc(-c4nc(N5CCOCC5)nc(N5CCOCC5)n4)cc3)cc2)CC1 [PF-05212384] | Inactive | Inactive |  | Inactive | Inactive |  |  |  | pEC50 ([3]; secondary high-throughput screen, read-out: average effective concentration, CMK): 5.11; pEC50 ([6]; secondary high-throughput screen, read-out: average effective concentration, MV4-11): 7.33; pEC50 ([7]; secondary high-throughput screen, U937, read-out: average effective concentration, U937): 7.62; pEC50 [8, 17]: 6.72 |
| O=C([O-])Cc1ccccc1.[Na+] [SODIUM PHENYLACETATE] |  | Inactive | Inactive | Inactive | Inactive | Inactive | Inactive |  | average effective concentration, M07e [1, 16]: Inactive; pEC50 [8, 17]: 5.68 |
| COc1cc2c(NC3CCN(C(C)C)CC3)nc(C3CCCCC3)nc2cc1OCCCN1CCCC1 [UNC0638 HYDRATE] |  |  | Inactive |  |  | Inactive |  |  | pEC50 ([1]; secondary high-throughput screen, […], read-out: average effective concentration, M07e): 5.30; pEC50 [2, 18]: 5.22; pEC50 [4, 19]: < 5.00; pEC50 [5, 20]: < 5.00; pEC50 [7, 21]: 5.35; pEC50 [8, 15]: < 5.00 |
| COc1cc(NCc2ccc3nc(N)nc(N)c3c2C)cc(OC)c1OC [TRIMETREXATE] |  |  |  |  |  |  |  |  | pEC50 [1, 22]: 5.00; pEC50 [2, 18]: 5.77; pEC50 ([3]; Homo sapiens, secondary high-throughput screen, read-out: average effective concentration, CMK): 5.38; pEC50 [4, 19]: 5.12; pEC50 [5, 20]: 5.54; pEC50 [6, 14]: 5.74; pEC50 [7, 21]: < 5.00; pEC50 [8, 15]: 6.77 |
| Cc1cnc(Nc2ccc(OCCN3CCCC3)cc2)nc1Nc1cccc(S(=O)(=O)NC(C)(C)C)c1 [FEDRATINIB] |  |  |  |  |  |  |  |  | pEC50 [1, 22]: 5.70; pEC50 ([2]; HTS, read-out: average effective concentration, CMS): 6.15; pEC50 ([3]; Homo sapiens, read-out: average effective concentration, CMK): 6.62; pEC50 [4, 19]: 6.12; pEC50 [5, 20]: 5.54; pEC50 [6, 14]: 7.09; pEC50 [7, 21]: 5.54; pEC50 [8, 15]: 7.29 |
| CC12CC3CC(C)(C1)CC(N)(C3)C2 [MEMANTINE] |  | Inactive | Inactive | Inactive | Inactive | Inactive | Inactive | Inactive | pEC50 [1, 22]: < 5.00 |
| N#CC(=C(/N)Sc1ccccc1N)/C(C#N)=C(/N)Sc1ccccc1N [Compound U0126] | Inactive | Inactive | Inactive | Inactive | Inactive | Inactive | Inactive | Inactive |  |
